# In ChEMBL document CHEMBL3351629, “Modulators of the nuclear receptor retinoic acid receptor-related orphan receptor-γ (RORγ or RORc)” (J Med Chem, 2014):
# What was measured:
# [1] = target: T1, Nuclear receptor ROR-gamma (Homo sapiens, UniProt P51449); test: Inverse agonist activity at human RoRc-LBD expressed in cells assessed as SRC1 to 2 coactivator peptide recruitment; assay type: functional, cell-based
# T1 sequence (P51449 whole entry): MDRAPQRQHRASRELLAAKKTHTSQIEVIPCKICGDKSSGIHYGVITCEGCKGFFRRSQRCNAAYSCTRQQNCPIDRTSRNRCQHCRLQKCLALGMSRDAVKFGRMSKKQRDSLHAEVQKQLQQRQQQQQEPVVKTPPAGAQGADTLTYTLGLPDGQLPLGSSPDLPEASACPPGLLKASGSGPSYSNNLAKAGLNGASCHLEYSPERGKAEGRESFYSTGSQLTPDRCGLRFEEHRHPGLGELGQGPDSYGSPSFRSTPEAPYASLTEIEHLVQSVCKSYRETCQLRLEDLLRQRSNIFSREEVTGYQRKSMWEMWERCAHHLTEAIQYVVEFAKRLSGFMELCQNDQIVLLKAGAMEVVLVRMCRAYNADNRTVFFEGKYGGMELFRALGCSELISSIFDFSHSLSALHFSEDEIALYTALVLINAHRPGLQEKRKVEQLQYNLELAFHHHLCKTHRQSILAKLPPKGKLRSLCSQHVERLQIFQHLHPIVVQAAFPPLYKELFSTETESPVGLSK
# [2] = target: T1, Nuclear receptor ROR-gamma; test: Agonist activity at RoRc-LBD (unknown origin) expressed in Drosophilla S2 cells assessed as transcriptional activity by GAL4 reporter assay; assay type: functional, cell-based
# [3] = target: T2, Nuclear receptor ROR-gamma (Mus musculus) (UniProt P51450); test: Activity at RoRc in mouse CD4+ T cells assessed as inhibition of IL-17 production at 10 uM; assay type: cell-based; settings: T-cell
# T2 sequence (whole entry): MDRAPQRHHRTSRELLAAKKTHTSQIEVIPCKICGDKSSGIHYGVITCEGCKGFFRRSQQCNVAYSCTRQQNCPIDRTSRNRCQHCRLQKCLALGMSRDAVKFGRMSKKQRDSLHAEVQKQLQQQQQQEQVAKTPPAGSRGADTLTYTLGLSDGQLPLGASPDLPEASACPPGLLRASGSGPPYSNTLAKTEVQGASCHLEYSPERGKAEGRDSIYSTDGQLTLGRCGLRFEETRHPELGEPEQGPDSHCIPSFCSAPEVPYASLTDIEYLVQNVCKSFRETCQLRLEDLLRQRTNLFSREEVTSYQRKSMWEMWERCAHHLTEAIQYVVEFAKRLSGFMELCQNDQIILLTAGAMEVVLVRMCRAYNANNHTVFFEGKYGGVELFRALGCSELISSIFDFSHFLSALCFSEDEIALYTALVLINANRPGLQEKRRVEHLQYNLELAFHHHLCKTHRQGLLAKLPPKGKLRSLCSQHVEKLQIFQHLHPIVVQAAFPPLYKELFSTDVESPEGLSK
# [4] = target: T1, Nuclear receptor ROR-gamma; test: Agonist activity at RoRc-LBD (unknown origin) expressed in HEK293 cells assessed as transcriptional activity by GAL4 reporter assay; assay type: functional, cell-based
# [5] = target: T1, Nuclear receptor ROR-gamma; test: Agonist activity at human RoRc-LBD in human PBMC cells assessed as inhibition of IL-17A production by luciferase assay; assay type: functional, cell-based
# [6] = target: T1, Nuclear receptor ROR-gamma; test: Inverse agonist activity at human RoRc-LBD fusion protein with GST expressed in […] cells assessed as SRC1 coactivator peptide recruitment; assay type: functional, cell-based
# [7] = target: T1, Nuclear receptor ROR-gamma; test: Activity at human RoRc in human Jurkat cells assessed as inhibition of IL-17 promoter; assay type: functional, cell-based
# [8] = target: T1, Nuclear receptor ROR-gamma; test: Agonist activity at human RoRc-LBD expressed in CHO cells assessed as transcriptional activity by GAL4 reporter assay; assay type: functional, cell-based
# [9] = target: T3, Nuclear receptor ROR-gamma (Homo sapiens) (UniProt P51449); test: Agonist activity at human RoRc-LBD expressed in Jurkat cells assessed as production of IL-17 at 3 uM by luciferase assay in absence of anti-CD3 relative to basal activity; assay type: cell-based
# T3 sequence (whole entry): T1 sequence (P51449 whole entry)
# [10] = target: T4, Nuclear receptor ROR-gamma (Mus musculus, UniProt P51450); test: Activity at RoRc in mouse CD4+ T cells assessed as inhibition of IL-17 production; assay type: cell-based, T-cell
# T4 sequence (P51450 whole entry): T2 sequence (whole entry)
# [11] = target: T1, Nuclear receptor ROR-gamma; test: Inverse agonist activity at human RoRc in human skin model assessed as suppression of IL-17A level relative to control; assay type: functional
# [12] = target: T1, Nuclear receptor ROR-gamma; test: Inverse agonist activity at human RoRc in human skin model assessed as suppression of IL-17F level relative to control; assay type: functional
# [13] = target: T1, Nuclear receptor ROR-gamma; test: Inverse agonist activity at human RoRc-LBD expressed in cells assessed as TRAP-220 coactivator peptide recruitment; assay type: functional, cell-based
structure (smiles),measurement,setting,value
Cc1cc(Cl)ccc1C(NC(=O)Cc1ccc(OCc2c(C)noc2C)cc1)c1ccc(Cl)cc1 (configuration not stated),IC50,[1],1 nM
C[C@H]1O[C@@H](O[C@H]2[C@@H](O)C[C@H](O[C@H]3[C@@H](O)C[C@H](O[C@H]4CC[C@@]5(C)[C@H](CC[C@@H]6[C@@H]5C[C@@H](O)[C@]5(C)[C@@H](C7=CC(=O)O/C7=C\c7ccccc7O)CC[C@]65O)C4)O[C@@H]3C)O[C@@H]2C)C[C@H](O)[C@@H]1O,EC50,[2],1000 nM
COc1ccc(C(C(=O)Nc2ccc(C(C)(C)C)cc2)N(C)C(=O)c2c[nH]c(=O)cn2)cc1 (configuration not stated),inhibition,[3],95%
O=C(Nc1ccc2cnn(S(=O)(=O)c3cccc(C(F)(F)F)c3)c2c1)c1c(F)cccc1C(F)(F)F,IC50,[4],15000 nM
same,IC50,[1],< 15000 nM
COc1ccc(C(C(=O)Nc2ccc(C(C)(C)C)cc2)N(C)C(=O)c2ccc(=O)[nH]c2)cc1 (configuration not stated),inhibition,[3],95%
Cc1noc(C)c1COc1ccc(S(=O)(=O)N(CC(C)C)c2ccc(Cl)cc2)cc1,EC50,[5],< 1000 nM
same,EC50,[1],< 16 nM
CCS(=O)(=O)c1ccc(CC(=O)Nc2nc(-c3cc(Cl)ccc3Cl)cs2)cc1,EC50,[6],1000 nM
CO[C@@H]1Cc2ccccc2CN(S(=O)(=O)c2cccc3cccnc23)[C@@H]1Cc1ccccc1,EC50,[4],< 500 nM
same,EC50,[6],< 500 nM
O=S(=O)(c1cccc2cccnc12)N1Cc2ccccc2COCC1Cc1ccccc1 (configuration not stated),EC50,[6],< 500 nM
CCS(=O)(=O)c1ccc(CC(=O)Nc2cc(-c3cccc(Cl)c3)c(C(=O)c3ccccc3Cl)s2)cc1,EC50,[6],6 nM
same,EC50,[7],25 nM
O=S(=O)(c1cc(F)ccc1OC(F)(F)F)N1Cc2nccnc2-n2ccnc2[C@H]1Cc1ccccc1,EC50,[4],< 500 nM
same,EC50,[6],< 500 nM
Cc1ccc(NC(=O)C[C@H](CCC(=O)O)c2noc([C@H]3C[C@@H](CC(C)(C)C)C3)c2C2CC2)c(Cl)c1,EC50,[8],2300 nM
Cc1ccc(N(CC(C)C)S(=O)(=O)c2ccc(OCc3ccncc3)cc2)c(C)c1,EC50,[5],316 nM
same,IC50,[1],< 16 nM
Cc1cccc(C(=O)Nc2cc(-c3ccccc3)no2)c1,Activity,[9],220%
Cc1c(S(=O)(=O)NCCO)cc(-c2cc(C(C)(C)C)cc(C(C)(C)C)c2)n1CC1CCCCC1,EC50,[4],< 500 nM
same,EC50,[6],< 500 nM
O=C(O)c1ccc(-c2nn(C(=O)c3c(Cl)cccc3C(F)(F)F)c3cc(C(=O)NCCO)ccc23)cc1,EC50,[6],< 50 nM
Cc1ccc([C@@H](NC(=O)Cc2ccc3oc(C(c4ccncc4)N4CC(N)C4)cc3c2)c2ccccc2)c(C)c1 (some centres not stated),IC50,[1],1 nM
CCS(=O)(=O)c1ccc(CC(=O)Nc2ccc(-c3ccccc3)c(C(C)C)c2)cc1,EC50,[7],1 nM
Cc1ccc(C(NC(=O)Cc2ccc(OCC(O)c3cccnc3C)cc2)c2ccccc2)c(C)c1 (configuration not stated),IC50,[1],1 nM
CCS(=O)(=O)c1ccc(CC(=O)Nc2ccc3c(ccn3CCc3ccc(Cl)cc3Cl)c2)cc1,EC50,[10],9 nM
OC(c1ccc(CN2CCCc3cc(-c4cn[nH]c4)ccc32)cc1)(C(F)(F)F)C(F)(F)F,EC50,[11],< 10000 nM
same,EC50,[12],< 10000 nM
[2H]C([2H])([2H])N(C(=O)c1c(F)cccc1Cl)c1ccc(-c2cc(C(=O)NCC(C)(C)O)ccc2Cl)cc1N(C([2H])([2H])C([2H])([2H])[2H])C([2H])([2H])C([2H])([2H])[2H],EC50,[10],< 100 nM
same,EC50,[13],< 100 nM
Cc1c(C(=O)N2CC3(CCS(=O)(=O)CC3)C2)cc(-c2ccc(S(=O)(=O)NC(C)(C)C)c3ccccc23)n1CC1CCCCC1,EC50,[4],16 nM
CN(C(=O)c1c(F)cccc1Cl)c1ccc(-c2cc(C(N)=O)ccc2Cl)cc1O[C@@H]1C[C@@H]2C[C@@H]2C1,EC50,[10],< 100 nM
same,EC50,[13],< 100 nM
O=C(O)c1ccc(-c2nn(C(=O)c3c(Cl)cccc3C(F)(F)F)c3cccnc23)c(F)c1,EC50,[6],< 50 nM
Cc1c(S(N)(=O)=O)cc(-c2cn(S(=O)(=O)N3CCCCC3)c3ccccc23)n1CC1CCCCC1,EC50,[4],< 500 nM
same,EC50,[6],< 500 nM
